Values joined by “and” are separate entries in the source; they are usually repeats but may differ in a detail not shown here. Equal entries are not always repeated. Each block holds one molecule with its values, some of them ahead of it.
Assay: solvent given as SMILES

Compound: CN(c1ccccc1)c1ccc(/C=C/c2ccccc2)cc1
emission maximum (in CC#N): 450 nm | emission maximum (in CCCCCC): 385 nm

Compound: CCOC(=O)CCCCCn1c2ccc(C)cc2c(=O)c2cc3c(cc21)c(=O)c1cc(C)ccc1n3CCCCCC(=O)OCC
emission maximum (in CO): 565 nm

Compound: COC(=O)c1ccc2cc(C#N)c3ccc4ccccc4c3c2c1
emission maximum (in ClC(Cl)Cl): 422 nm

Compound: C=Cc1cccc(OC)c1
emission maximum (in C1CCCCC1): 327 nm | emission maximum (in CC#N): 330 nm

Compound: COc1ccc(-n2nc(C#N)c(N3CCCC3)n2)cc1OC
emission maximum (in CC#N): 417 nm

Compound: Cc1csc2[n+]1[B-](F)(F)n1c(c3cccc4cccc1c43)=N2
emission maximum (in C1CCOC1): 500 nm | emission maximum (in CC#N): 499 nm | emission maximum (in CCCCCC): 488 nm | emission maximum (in Cc1ccccc1): 502 nm | emission maximum (in ClCCl): 527 nm

Compound: CC1(C)c2ccccc2N(c2ccc(-c3ncc(C#N)cn3)cc2)c2ccccc21
emission maximum (in Cc1ccccc1): 543 nm | emission maximum (in N#Cc1ccc2c(c1)c1ccccc1n2-c1cccc(-n2c3ccccc3c3ccccc32)c1): 541 nm

Compound: O=C(O)COc1ccc2[nH]c3c(c2c1)CCCC3=O
emission maximum (in C1CCOC1): 419.81 nm | emission maximum (in C1COCCO1): 404.04 nm | emission maximum (in CC#N): 419.23 nm | emission maximum (in CCCCCCCCCCCCO): 449.42 nm | emission maximum (in CCCCCCCCCCO): 449.81 nm | emission maximum (in CCCCCCCCO): 456.15 nm | emission maximum (in CCCCCCO): 469.04 nm | emission maximum (in CCCCO): 464.23 nm | emission maximum (in CCO): 472.12 nm | emission maximum (in CCOC(C)=O): 410 nm | emission maximum (in CN(C)C=O): 430 nm | emission maximum (in CO): 491.73 nm | emission maximum (in CS(C)=O): 426.92 nm | emission maximum (in Cc1ccccc1): 400.96 nm | emission maximum (in O): 507.69 nm | emission maximum (in c1ccccc1): 399.81 nm

Compound: N#Cc1ccc(/C2=C3N=C(C(c4ccccc4)=C/3c3ccccc3)/C(c3ccc(C#N)cc3)=c3\[nH]/c(c(-c4ccccc4)c3-c3ccccc3)=C(/c3ccc(C#N)cc3)C3=N/C(=C(/c4ccc(C#N)cc4)c4[nH]c2c(-c2ccccc2)c4-c2ccccc2)C(c2ccccc2)=C3c2ccccc2)cc1
emission maximum (in ClCCl): 725 nm

Compound: FC(F)(F)c1ccc(-c2nnc(-c3cc(-n4c5ccccc5c5ccccc54)c(-n4c5ccccc5c5ccccc54)cc3-c3nnc(-c4ccc(C(F)(F)F)cc4)o3)o2)cc1
emission maximum (in CC#N): 544.97 nm | emission maximum (in Cc1ccccc1): 487 nm | emission maximum (in ClCCl): 519.92 nm

Compound: Nc1ccccc1
emission maximum (in C1CCCCC1): 323.42 nm

Compound: COC(=O)C1=C(C(=O)OC)C2(c3cc([N+](=O)[O-])ccc3-c3ccc([N+](=O)[O-])cc32)C2(/C=C/c3ccccc3)c3cc(OC)c(OC)cc3CCN12 (centres undefined)
emission maximum (in ClCCl): 495 nm

Compound: CC1=CC(C)=[N+]2C1=C(c1ccccc1)c1c(C)cc(C)n1[B-]2(F)F
emission maximum (in C1CCOC1): 512 nm and 510 nm | emission maximum (in CC#N): 508 nm | emission maximum (in CC(=O)C(C)(C)C): 511 nm | emission maximum (in CC(C)=O): 509 nm | emission maximum (in CCCCCC): 511 nm | emission maximum (in CCOC(C)=O): 510 nm | emission maximum (in CO): 509 nm and 510 nm | emission maximum (in Cc1ccccc1): 516 nm | emission maximum (in ClCCl): 513 nm

Compound: CCC1=C(C)C(=O)n2c1cc1c(C)c(CCC(=O)OC)c(C)n1c2=O
emission maximum (in CO): 530 nm | emission maximum (in CS(C)=O): 505 nm | emission maximum (in ClC(Cl)Cl): 495 nm | emission maximum (in c1ccccc1): 470 nm

Compound: Nc1cc(N)cc(-c2nc3ccccc3s2)c1
emission maximum (in C1CCCCC1): 410.5 nm | emission maximum (in C1COCCO1): 458 nm | emission maximum (in CC#N): 482 nm | emission maximum (in CC(C)O): 513 nm | emission maximum (in CCOC(C)=O): 468 nm | emission maximum (in CCOCC): 457 nm | emission maximum (in CO): 519 nm | emission maximum (in O): 541 nm

Compound: CCOC(=O)c1c2c3c(ccc(C)c3c3cc4c(cc13)[Si](C)(C)O[Si]4(C)C)N(C)C2=O
emission maximum (in CC#N): 413 nm

Results, then the molecule that gave them:

emission maximum (in C1CCCCC1): 338 nm | emission maximum (in C1CCOC1): 353 nm | emission maximum (in C1COCCO1): 352 nm | emission maximum (in CC#N): 359 nm | emission maximum (in CCCCCC): 337 nm | emission maximum (in CO): 362 nm | emission maximum (in ClC(Cl)Cl): 356 nm
Compound: F[B-]1(F)n2ccnc2-c2cccc[n+]21

emission maximum (in C1CCCCC1): 418.86 nm | emission maximum (in C1CCOC1): 416.47 nm | emission maximum (in CC#N): 414.88 nm | emission maximum (in CCCCCC): 417.26 nm | emission maximum (in CCO): 416.27 nm | emission maximum (in CN(C)C=O): 417.86 nm | emission maximum (in CO): 418.06 nm | emission maximum (in ClC(Cl)Cl): 417.61 nm | emission maximum (in ClCCl): 417.26 nm
Compound: COc1ccc(-c2cc3ccc4cc(-c5ccc(OC)cc5)cc5ccc(c2)c3c45)cc1

emission maximum (in C1CCOC1): 439 nm
Compound: N#Cc1ccc(/C=C/C(F)(F)F)c(N)c1

emission maximum (in CO): 542 nm
Compound: C(=C\c1cc[n+]2ccc(/C=C/c3cc[nH]c3)cc2c1)/c1cc[nH]c1

emission maximum (in CO): 430 nm
Compound: Cc1ccc(-c2nc(-c3ccccc3O)[nH]c2-c2ccc(C)cc2)cc1

emission maximum (in ClC(Cl)Cl): 425 nm
Compound: CCn1c2ccccc2c2cc3c(cc21)c1ccccc1n3CC

emission maximum (in ClCCl): 407 nm
Compound: CCCCn1c(-c2ccc(-c3nnc(-c4ccc(-c5nc6ccccc6n5CCCC)cc4)o3)cc2)nc2ccccc21

Source: the Deep4Chem optical property database
